Data published in ChEMBL document CHEMBL4417633, “Inhibitory polypeptides specific to WNT inhibitors” (2017).
Activity calls are given as the source filed them. No cut-off for these calls is given here. Where a SMILES comes first, the peptide text is derived from it.

Key:
[1] = target: T1, Dickkopf-related protein 1 (Homo sapiens, UniProt O94907); experiment: Inhibition of human DKK1 in MC3T3E1/TetON-Wnt1/STF-Luc#5 cells assessed as DKK1 neutralizing activity by Wnt1-induced TCF/LEF luciferase reporter gene assay
T1 sequence (O94907 whole entry): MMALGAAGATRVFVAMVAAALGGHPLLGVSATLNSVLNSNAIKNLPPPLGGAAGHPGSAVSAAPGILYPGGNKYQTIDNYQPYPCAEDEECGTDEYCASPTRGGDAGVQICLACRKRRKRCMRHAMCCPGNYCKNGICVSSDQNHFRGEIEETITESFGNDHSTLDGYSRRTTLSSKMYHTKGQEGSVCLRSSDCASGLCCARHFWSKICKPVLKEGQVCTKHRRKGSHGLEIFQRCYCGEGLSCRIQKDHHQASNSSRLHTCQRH

[2] = target: T2, Dickkopf WNT-signaling pathway inhibitor 1 (Rattus norvegicus) (UniProt A6I0Z0); experiment: Inhibition of biotin-labeled rat recombinant DKK1 assessed as reduction in DKK1 interaction with LRP-6/Fc incubated overnight by chemiluminescence based Alpha-screen assay
T2 sequence (whole entry): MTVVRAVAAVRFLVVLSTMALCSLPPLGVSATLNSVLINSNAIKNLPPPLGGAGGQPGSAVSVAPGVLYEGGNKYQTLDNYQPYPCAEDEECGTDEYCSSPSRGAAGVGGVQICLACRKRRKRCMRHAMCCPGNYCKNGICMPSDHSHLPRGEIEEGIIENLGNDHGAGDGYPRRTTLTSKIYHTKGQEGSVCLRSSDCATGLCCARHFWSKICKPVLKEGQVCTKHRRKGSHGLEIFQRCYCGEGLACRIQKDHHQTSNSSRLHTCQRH

[3] = target: T3, Dickkopf-related protein 1 (Homo sapiens) (UniProt O94907); experiment: Inhibition of biotin-labeled human recombinant DKK1 assessed as reduction in DKK1 interaction with LRP-6/Fc incubated overnight by chemiluminescence based Alpha-screen assay
T3 sequence (whole entry): T1 sequence (O94907 whole entry)

| SMILES | IC50 [1] | inhibition [2] | inhibition [3] |
| --- | --- | --- | --- |
| CC[C@H](C)[C@H](NC(=O)[C@H](CCC(=O)O)NC(=O)[C@H](CC(=O)O)NC(=O)[C@H](CO)NC(=O)[C@H](C)NC(=O)[C@H](CC(=O)O)NC(=O)[C@@H](NC(=O)[C@H](CS)NC(=O)[C@H](CC(=O)O)NC(=O)[C@@H]1CCCN1C(=O)[C@H](Cc1ccccc1)NC(=O)CNC(=O)[C@H](CC(=O)O)NC(=O)[C@H](CS)NC(=O)[C@H](CCCNC(=N)N)NC(=O)[C@H](Cc1c[nH]c2ccccc12)NC(=O)[C@H](CCC(=O)O)NC(=O)[C@H](CCSC)NC(=O)[C@@H]1CCCN1C(=O)[C@H](Cc1ccc(O)cc1)NC(=O)[C@H](CS)NC(=O)[C@H](Cc1cnc[nH]1)NC(=O)[C@@H]1CCCN1C(=O)[C@H](Cc1cnc[nH]1)NC(=O)[C@H](CC(N)=O)NC(=O)[C@H](CCCNC(=N)N)NC(=O)[C@H](CS)NC(=O)[C@H](CCC(N)=O)NC(=O)[C@H](Cc1ccccc1)NC(=O)[C@H](Cc1ccc(O)cc1)NC(=O)[C@H](CO)NC(=O)[C@@H](NC(=O)[C@@H]1CCCN1C(=O)[C@@H](N)CS)C(C)C)C(C)C)C(=O)NCC(=O)N[C@@H](CS)C(=O)NCC(=O)NCC(=O)NCC(=O)NCC(=O)O (H-CPVSYFQCRNHPHCYPMEWRCDGFPDCVDASDEIGCGGGG-OH) | 0.8 to 3 nM | Active | Active |
| CC[C@H](C)[C@H](NC(=O)[C@H](CS)NC(=O)[C@H](CC(=O)O)NC(=O)[C@@H]1CCCN1C(=O)[C@H](Cc1ccccc1)NC(=O)CNC(=O)[C@H](CC(=O)O)NC(=O)[C@H](CS)NC(=O)[C@H](CCCNC(=N)N)NC(=O)[C@H](Cc1c[nH]c2ccccc12)NC(=O)[C@H](CCC(=O)O)NC(=O)[C@H](CCSC)NC(=O)[C@@H]1CCCN1C(=O)[C@H](Cc1ccc(O)cc1)NC(=O)[C@H](CS)NC(=O)[C@H](Cc1cnc[nH]1)NC(=O)[C@@H]1CCCN1C(=O)[C@H](Cc1cnc[nH]1)NC(=O)[C@H](CC(N)=O)NC(=O)[C@H](CCCNC(=N)N)NC(=O)[C@H](CS)NC(=O)[C@@H]1CCCN1C(=O)[C@H](Cc1ccccc1)NC(=O)[C@H](Cc1ccc(O)cc1)NC(=O)[C@@H](NC(=O)[C@H](C)NC(=O)[C@@H]1CCCN1C(=O)[C@@H](N)CS)[C@@H](C)O)C(=O)N[C@@H](CC(=O)O)C(=O)N[C@@H](CCC(=O)O)C(=O)N[C@@H](CO)C(=O)N[C@@H](CC(=O)O)C(=O)N[C@@H](CCC(=O)O)C(=O)N[C@@H](CCSC)C(=O)NCC(=O)N[C@@H](CS)C(=O)NCC(=O)NCC(=O)NCC(=O)NCC(=O)O (H-CPATYFPCRNHPHCYPMEWRCDGFPDCIDESDEMGCGGGG-OH) | 0.8 to 3 nM | Active | Active |
| CSCC[C@H](NC(=O)[C@@H]1CCCN1C(=O)[C@H](Cc1ccc(O)cc1)NC(=O)[C@H](CS)NC(=O)[C@H](Cc1cnc[nH]1)NC(=O)[C@@H]1CCCN1C(=O)[C@H](Cc1cnc[nH]1)NC(=O)[C@H](CCCNC(=N)N)NC(=O)[C@H](CCCNC(=N)N)NC(=O)[C@H](CS)NC(=O)[C@H](CCC(N)=O)NC(=O)[C@H](Cc1ccccc1)NC(=O)[C@H](Cc1ccc(O)cc1)NC(=O)[C@H](CO)NC(=O)[C@H](C)NC(=O)[C@@H]1CCCN1C(=O)[C@@H](N)CS)C(=O)N[C@@H](CCC(=O)O)C(=O)N[C@@H](Cc1c[nH]c2ccccc12)C(=O)N[C@@H](CCCNC(=N)N)C(=O)N[C@@H](CS)C(=O)N[C@@H](CC(=O)O)C(=O)NCC(=O)N[C@@H](Cc1ccccc1)C(=O)N1CCC[C@H]1C(=O)N[C@@H](CC(=O)O)C(=O)N[C@@H](CS)C(=O)N[C@@H](CC(C)C)C(=O)N[C@@H](CC(=O)O)C(=O)NCC(=O)N[C@@H](CO)C(=O)N[C@@H](CC(=O)O)C(=O)N[C@@H](CCC(=O)O)C(=O)N[C@@H](CCC(=O)O)C(=O)NCC(=O)N[C@@H](CS)C(=O)NCC(=O)NCC(=O)NCC(=O)NCC(=O)O (H-CPASYFQCRRHPHCYPMEWRCDGFPDCLDGSDEEGCGGGG-OH) | 0.8 to 3 nM | Active | Active |
| CSCC[C@H](NC(=O)[C@@H]1CCCN1C(=O)[C@H](Cc1cnc[nH]1)NC(=O)[C@H](CS)NC(=O)[C@@H]1CCCN1C(=O)[C@@H]1CCCN1C(=O)[C@H](CC(=O)O)NC(=O)[C@H](CC(N)=O)NC(=O)[C@H](CCCNC(=N)N)NC(=O)[C@H](CS)NC(=O)[C@H](CCC(N)=O)NC(=O)[C@H](Cc1ccccc1)NC(=O)[C@H](Cc1ccc(O)cc1)NC(=O)[C@@H]1CCCN1C(=O)[C@H](C)NC(=O)[C@@H]1CCCN1C(=O)[C@@H](N)CS)C(=O)N[C@@H](CC(=O)O)C(=O)N[C@@H](Cc1c[nH]c2ccccc12)C(=O)N[C@@H](CCCNC(=N)N)C(=O)N[C@@H](CS)C(=O)N[C@@H](CC(=O)O)C(=O)NCC(=O)N[C@@H](Cc1ccccc1)C(=O)N1CCC[C@H]1C(=O)N[C@@H](CC(=O)O)C(=O)N[C@@H](CS)C(=O)N[C@H](C(=O)N[C@@H](CC(=O)O)C(=O)NCC(=O)N[C@@H](CO)C(=O)N[C@@H](CC(=O)O)C(=O)N[C@@H](CCC(=O)O)C(=O)N[C@@H](CCCCN)C(=O)NCC(=O)N[C@@H](CS)C(=O)NCC(=O)NCC(=O)NCC(=O)NCC(=O)O)C(C)C (H-CPAPYFQCRNDPPCHPMDWRCDGFPDCVDGSDEKGCGGGG-OH) | 0.8 to 3 nM | Active | Active |
| CSCC[C@H](NC(=O)[C@@H]1CCCN1C(=O)[C@H](Cc1ccc(O)cc1)NC(=O)[C@H](CS)NC(=O)[C@H](Cc1cnc[nH]1)NC(=O)[C@@H]1CCCN1C(=O)[C@H](Cc1cnc[nH]1)NC(=O)[C@H](CC(N)=O)NC(=O)[C@H](CCCNC(=N)N)NC(=O)[C@H](CS)NC(=O)[C@H](CCCNC(=N)N)NC(=O)[C@H](Cc1ccccc1)NC(=O)[C@H](Cc1ccc(O)cc1)NC(=O)[C@H](CO)NC(=O)[C@H](C)NC(=O)[C@@H]1CCCN1C(=O)[C@@H](N)CS)C(=O)N[C@@H](CCC(=O)O)C(=O)N[C@@H](Cc1c[nH]c2ccccc12)C(=O)N[C@@H](CCCNC(=N)N)C(=O)N[C@@H](CS)C(=O)N[C@@H](CC(=O)O)C(=O)NCC(=O)N[C@@H](Cc1ccccc1)C(=O)N[C@@H](CCC(=O)O)C(=O)N[C@@H](CC(=O)O)C(=O)N[C@@H](CS)C(=O)N[C@H](C(=O)N[C@@H](CC(=O)O)C(=O)NCC(=O)N[C@@H](CO)C(=O)N[C@@H](CC(=O)O)C(=O)N[C@@H](CCC(=O)O)C(=O)N[C@@H](CC(C)C)C(=O)N[C@@H](CC(=O)O)C(=O)N[C@@H](CS)C(=O)NCC(=O)NCC(=O)NCC(=O)NCC(=O)O)C(C)C (H-CPASYFRCRNHPHCYPMEWRCDGFEDCVDGSDELDCGGGG-OH) | 0.8 to 3 nM | Active | Active |
| CSCC[C@H](NC(=O)[C@@H]1CCCN1C(=O)[C@H](Cc1ccc(O)cc1)NC(=O)[C@H](CS)NC(=O)[C@H](Cc1cnc[nH]1)NC(=O)[C@@H]1CCCN1C(=O)[C@H](Cc1cnc[nH]1)NC(=O)[C@H](CC(N)=O)NC(=O)[C@H](CCCNC(=N)N)NC(=O)[C@H](CS)NC(=O)[C@H](CCC(N)=O)NC(=O)[C@H](Cc1ccccc1)NC(=O)[C@H](Cc1ccc(O)cc1)NC(=O)[C@H](CO)NC(=O)[C@H](CCC(=O)O)NC(=O)[C@@H]1CCCN1C(=O)[C@@H](N)CS)C(=O)N[C@@H](CCC(=O)O)C(=O)N[C@@H](Cc1c[nH]c2ccccc12)C(=O)N[C@@H](CCCNC(=N)N)C(=O)N[C@@H](CS)C(=O)N[C@@H](CC(=O)O)C(=O)NCC(=O)N[C@@H](Cc1ccccc1)C(=O)N[C@@H](CCC(=O)O)C(=O)N[C@@H](CC(=O)O)C(=O)N[C@@H](CS)C(=O)N[C@H](C(=O)N[C@@H](CC(=O)O)C(=O)NCC(=O)N[C@@H](CO)C(=O)N[C@@H](CC(=O)O)C(=O)N[C@@H](CCC(=O)O)C(=O)N[C@@H](CC(C)C)C(=O)N[C@@H](CC(=O)O)C(=O)N[C@@H](CS)C(=O)NCC(=O)NCC(=O)NCC(=O)NCC(=O)O)C(C)C (H-CPESYFQCRNHPHCYPMEWRCDGFEDCVDGSDELDCGGGG-OH) | 0.8 to 3 nM | Active | Active |
| CC[C@H](C)[C@H](NC(=O)[C@H](CS)NC(=O)[C@H](CC(=O)O)NC(=O)[C@@H]1CCCN1C(=O)[C@H](Cc1ccccc1)NC(=O)CNC(=O)[C@H](CC(=O)O)NC(=O)[C@H](CS)NC(=O)[C@H](CCCNC(=N)N)NC(=O)[C@H](Cc1c[nH]c2ccccc12)NC(=O)[C@H](CCC(=O)O)NC(=O)[C@H](CCSC)NC(=O)[C@@H]1CCCN1C(=O)[C@H](Cc1ccc(O)cc1)NC(=O)[C@H](CS)NC(=O)[C@H](Cc1cnc[nH]1)NC(=O)[C@H](CCCCN)NC(=O)[C@H](Cc1ccc(O)cc1)NC(=O)[C@H](CCC(=O)O)NC(=O)[C@H](CCCNC(=N)N)NC(=O)[C@H](CS)NC(=O)[C@H](CCC(N)=O)NC(=O)[C@H](Cc1ccccc1)NC(=O)[C@H](Cc1ccc(O)cc1)NC(=O)[C@H](CO)NC(=O)[C@H](CCC(=O)O)NC(=O)[C@@H]1CCCN1C(=O)[C@@H](N)CS)C(=O)N[C@@H](CC(=O)O)C(=O)N[C@@H](CO)C(=O)N[C@@H](CO)C(=O)N[C@@H](CC(=O)O)C(=O)N[C@@H](CCC(=O)O)C(=O)N[C@H](C(=O)N[C@@H](CC(=O)O)C(=O)N[C@@H](CS)C(=O)NCC(=O)NCC(=O)NCC(=O)NCC(=O)O)[C@@H](C)O (H-CPESYFQCREYKHCYPMEWRCDGFPDCIDSSDETDCGGGG-OH) | 0.8 to 3 nM | Active | Active |
